# Literature values in patent US20190154648A1, “METHODS OF ATTENUATING DRUG EXCIPIENT CROSS REACTIVITY” (Chesapeake Therapeutics, LLC, priority 2016, published 2019).
# Where a name gives a salt, the structure may show the parent alone.
# What was measured:
# [1] = in vivo
smiles,measurement,setting,value
OCCOCCN1CCN(C2=Nc3ccccc3Sc3ccccc32)CC1 [quetiapine fumarate],single-dose toxicity,[1],low
same,mechanistically unexplainable side effects in repeat-dose toxicity studies,nonhuman primates,"pigmentation of the thyroid, transient increases in heart rate, posterior triangular cataracts, and reduced lymphocyte count"
